Columns and labels:
[1] = target: 5-hydroxytryptamine receptor 2A (Homo sapiens, UniProt P28223); test: Affinity of Compounds for 5-HT2A Receptors
Protocol: The affinity of the compounds of the present disclosure for the 5-HT2A receptors was determined by the method of radioligand competition experiment. In the first step, a cell membrane component containing specific 5-HT2A receptor was prepared. A 10 cm dish was used for transfection with 10 ng of the 5-HT2A receptor and 40 μL of PEI. After 48 hours, the 10 cm dish was taken out from the cell incubator and the cultured cells had expressed the 5-HT2A receptor. A vacuum pump was used to suck off the culture medium, 3 mL of lysis buffer was added to each culture dish, and the cells were placed in a 4° C. cold room for 10 minutes. After the cells were detached, the cells were transferred to a 15 mL centrifuge tube and centrifuged at 1500 rpm for 5 minutes at 4° C., and the supernatant was discarded. The cell pellet was transferred to a tissue homogenizer, and 3 mL of lysis buffer was added and fully ground until the cells were broken. Then, cell suspension was equally aliquoted into several EP tubes, centrifuged at 12000 rpm for 5 minutes at 4° C., and the supernatant was discarded. The precipitate was the cell membrane component containing the 5-HT2A receptor. […] First, a standard binding buffer was added to the cell membrane component containing the 5-HT2A receptor, and the cell membrane was disrupted and resuspended with an electric tissue homogenizer. […]

D(2) dopamine receptor = D(2) dopamine receptor (Homo sapiens, UniProt P14416); test: Affinity of Compounds for Dopamine D2 Receptors
Sequence of D(2) dopamine receptor (P14416 whole entry): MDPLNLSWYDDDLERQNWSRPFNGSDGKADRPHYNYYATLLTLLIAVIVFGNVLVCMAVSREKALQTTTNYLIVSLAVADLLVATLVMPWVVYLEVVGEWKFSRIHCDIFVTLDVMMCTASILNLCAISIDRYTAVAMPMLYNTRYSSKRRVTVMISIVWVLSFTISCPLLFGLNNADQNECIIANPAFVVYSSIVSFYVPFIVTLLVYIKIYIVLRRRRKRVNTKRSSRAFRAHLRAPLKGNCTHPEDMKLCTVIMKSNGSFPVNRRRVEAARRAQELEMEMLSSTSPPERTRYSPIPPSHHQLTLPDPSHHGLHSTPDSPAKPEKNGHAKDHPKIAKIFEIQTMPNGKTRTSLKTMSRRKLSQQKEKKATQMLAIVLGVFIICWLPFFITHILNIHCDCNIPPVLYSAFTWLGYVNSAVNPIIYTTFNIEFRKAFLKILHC
Protocol: The affinity of the compounds of the present disclosure for the dopamine D2 receptors was determined by the method of radioligand competition experiment. In the first step, a cell membrane component containing specific dopamine D2 receptors was prepared. A 10 cm culture dish was used for transfection with 10 ng of the dopamine D2 receptors and 40 μL of polyethylenimine (PEI hereafter). After 48 hours, the 10 cm culture dish was taken out from the cell culture incubator and the cultured cells had expressed the dopamine D2 receptors. A vacuum pump was used to suck off the culture medium, 3 mL of lysis buffer was added to each culture dish, and the cells were placed in a 4° C. cold room for 10 minutes. After the cells were detached, the cells were transferred to a 15 mL centrifuge tube and centrifuged at 1500 rpm for 5 minutes at 4° C., and the supernatant was discarded. The cell pellet was transferred to a tissue homogenizer, and 3 mL of lysis buffer was added and fully ground until the cells were broken. Then, cell suspension was equally aliquoted into several EP tubes, centrifuged at 12000 rpm for 5 minutes at 4° C., and the supernatant was discarded. The precipitate was the cell membrane component containing the dopamine D2 receptors. […]

Sequence of 5-hydroxytryptamine receptor 2A (P28223 whole entry): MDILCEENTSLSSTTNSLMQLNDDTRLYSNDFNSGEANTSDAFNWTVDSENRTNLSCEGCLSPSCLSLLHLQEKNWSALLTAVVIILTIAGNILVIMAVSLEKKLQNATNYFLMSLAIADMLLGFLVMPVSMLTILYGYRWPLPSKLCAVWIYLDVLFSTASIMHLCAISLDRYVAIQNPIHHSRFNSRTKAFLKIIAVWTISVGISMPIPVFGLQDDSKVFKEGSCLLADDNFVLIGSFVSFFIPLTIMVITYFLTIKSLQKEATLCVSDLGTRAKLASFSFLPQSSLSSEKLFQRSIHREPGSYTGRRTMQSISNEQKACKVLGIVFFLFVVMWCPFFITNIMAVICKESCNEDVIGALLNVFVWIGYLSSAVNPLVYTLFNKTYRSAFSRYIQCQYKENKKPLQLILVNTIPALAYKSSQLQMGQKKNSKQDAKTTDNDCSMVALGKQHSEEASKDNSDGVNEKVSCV

SMILES: c1ccc(-c2cccc(CN3CCN4c5cccc6scc(c56)CC4C3)c2)cc1 (configuration not stated) [US20240383913, Compound I-7]
- Ki [1]: 910 nM
- Ki (D(2) dopamine receptor): 310 nM

From BindingDB's records for patent US20240383913 (Chinese Academy of Sciences, 2024)
